Assay results as given in US6825170B2, “6-O-acyl ketolide antibacterials” (Ortho-McNeil Pharmaceutical, Inc., priority 2001, dated 2004).
Converted amounts (≈) assume the structure as drawn.

Experiments:
Assay in all cases: MIC, microdilution broth method (NCCLS)
Assay type in all cases: cell-based
Conditions in all cases: 35° C., 16-20 hours
E. faecalis ATCC29212 = test system: E. faecalis ATCC29212
Protocol: (§1) Minimal inhibitory concentration (MIC) has been an indicator of in vitro antibacterial activity widely used in the art. The in vitro antimicrobial activity of the compounds was determined by the microdilution broth method following the test method from the National Committee for Clinical Laboratory Standards (NCCLS). This method is described in the NCCLS Document M7-A4, Vol.17, No.2, “Methods for Dilution Antimicrobial Susceptibility Test for Bacteria that Grow Aerobically—Fourth Edition”, which is incorporated herein by reference.
(§2) In this method two-fold serial dilutions of drug in cation adjusted Mueller-Hinton broth are added to wells in microdilution trays. The test organisms are prepared by adjusting the turbidity of actively growing broth cultures so that the final concentration of test organism after it is added to the wells is approximately 5×10^4 CFU/well.
(§3) Following inoculation of the microdilution trays, the trays are incubated at 35° C. for 16-20 hours and then read. […] The amount of growth in the wells containing the test compound is compared with the amount of growth in the growth-control wells (no test compound) used in each tray. As set forth in Table 1, compounds of the present invention were tested against a variety of Gram positive and Gram negative pathogenic bacteria resulting in a range of activities depending on the organism tested.

H. influenzae ATCC49247 = test system: H. influenzae ATCC49247
Protocol: as §1, §2, §3

S. aureus ATCC29213 = test system: S. aureus ATCC29213
Protocol: as §1, §2, §3

S. pneumoniae ATCC49619 = test system: S. pneumoniae ATCC49619
Protocol: as §1, §2, §3

| SMILES | MIC (C: E. faecalis ATCC29212) (E. faecalis ATCC29212) | MIC (E: H. influenzae ATCC49247) (H. influenzae ATCC49247) | MIC (B: S. aureus ATCC29213) (S. aureus ATCC29213) | MIC (D: S. pneumoniae ATCC49619) (S. pneumoniae ATCC49619) |
| --- | --- | --- | --- | --- |
| CCC1OC(=O)C(C)C(=O)C(C)C(OC2OC(C)CC(N(C)C)C2O)C(C)(OC(=O)OCC=Cc2cccc(-c3ncccn3)c2)CC(C)C(=O)C(C)C2NC(=O)OC12C (stereo not shown) [Compound 15] | 0.06 µg/mL (≈ 0.0717 µM) | 0.5 µg/mL (≈ 0.597 µM) | 0.12 µg/mL (≈ 0.143 µM) | 0.03 µg/mL (≈ 0.0358 µM) |
| CCC1OC(=O)C(C)C(=O)C(C)C(OC2OC(C)CC(N(C)C)C2O)C(C)(OC(=O)OCC=Cc2ccc(-c3cnccn3)cc2)CC(C)C(=O)C(C)C2NC(=O)OC12C (stereo not shown) [Compound 19] | 0.06 µg/mL (≈ 0.0717 µM) | – | 0.12 µg/mL (≈ 0.143 µM) | ≦0.015 μg/mL |
| CCC1OC(=O)C(C)C(=O)C(C)C(OC2OC(C)CC(N(C)C)C2O)C(C)(OC(=O)OCC=Cc2ccc(-n3cccn3)cc2)CC(C)C(=O)C(C)C2NC(=O)OC12C (stereo not shown) [Compound 21] | 0.06 µg/mL (≈ 0.0727 µM) | – | 0.12 µg/mL (≈ 0.145 µM) | ≦0.015 μg/mL |
| CCC1OC(=O)C(C)C(=O)C(C)C(OC2OC(C)CC(N(C)C)C2O)C(C)(OC(=O)OCC=Cc2ccc(-n3cncn3)cc2)CC(C)C(=O)C(C)C2NC(=O)OC12C (stereo not shown) [Compound 22] | 0.06 µg/mL (≈ 0.0726 µM) | 0.5 µg/mL (≈ 0.605 µM) | 0.25 µg/mL (≈ 0.303 µM) | ≦0.015 μg/mL |
| CCC1OC(=O)C(C)C(=O)C(C)C(OC2OC(C)CC(N(C)C)C2O)C(C)(OC(=O)OCC=Cc2ccc(-n3ccnn3)cc2)CC(C)C(=O)C(C)C2NC(=O)OC12C (stereo not shown) [Compound 24] | 0.06 µg/mL (≈ 0.0726 µM) | 1 µg/mL (≈ 1.21 µM) | 0.12 µg/mL (≈ 0.145 µM) | ≦0.015 μg/mL |
| CCC1OC(=O)C(C)C(=O)C(C)C(OC2OC(C)CC(N(C)C)C2O)C(C)(OC(=O)OCC=Cc2ccc(-c3ccn(C)n3)cc2)CC(C)C(=O)C(C)C2NC(=O)OC12C (stereo not shown) [Compound 26] | 0.12 µg/mL (≈ 0.143 µM) | 2 µg/mL (≈ 2.38 µM) | 0.25 µg/mL (≈ 0.298 µM) | 0.03 µg/mL (≈ 0.0358 µM) |
| CCC1OC(=O)C(C)C(=O)C(C)C(OC2OC(C)CC(N(C)C)C2O)C(C)(OC(=O)OCC=Cc2ccc(-n3cccn3)cc2F)CC(C)C(=O)C(C)C2NC(=O)OC12C (stereo not shown) [Compound 30] | 0.06 µg/mL (≈ 0.0712 µM) | 1 µg/mL (≈ 1.19 µM) | 0.12 µg/mL (≈ 0.142 µM) | ≦0.015 μg/mL |
| CCC1OC(=O)C(C)C(=O)C(C)C(OC2OC(C)CC(N(C)C)C2O)C(C)(OC(=O)OCC=Cc2ccc(-n3cncn3)c(F)c2)CC(C)C(=O)C(C)C2NC(=O)OC12C (stereo not shown) [Compound 31] | 0.06 µg/mL (≈ 0.0711 µM) | 1 µg/mL (≈ 1.18 µM) | 0.12 µg/mL (≈ 0.142 µM) | 0.03 µg/mL (≈ 0.0355 µM) |
| CCC1OC(=O)C(C)C(=O)C(C)C(OC2OC(C)CC(N(C)C)C2O)C(C)(OC(=O)OCC=Cc2cnn(-c3ccccc3)c2)CC(C)C(=O)C(C)C2NC(=O)OC12C (stereo not shown) [Compound 33] | 0.12 µg/mL (≈ 0.145 µM) | 1 µg/mL (≈ 1.21 µM) | 0.25 µg/mL (≈ 0.303 µM) | 0.06 µg/mL (≈ 0.0727 µM) |
| CCC1OC(=O)C(C)C(=O)C(C)C(OC2OC(C)CC(N(C)C)C2O)C(C)(OC(=O)OCC=Cc2ccc3ncccc3c2)CC(C)C(=O)C(C)C2NC(=O)OC12C (stereo not shown) [Compound 40] | 0.06 µg/mL (≈ 0.0741 µM) | – | 0.12 µg/mL (≈ 0.148 µM) | 0.06 µg/mL (≈ 0.0741 µM) |
| CCC1OC(=O)C(C)C(=O)C(C)C(OC2OC(C)CC(N(C)C)C2O)C(C)(OC(=O)OCC=Cc2ccc3nccnc3c2)CC(C)C(=O)C(C)C2NC(=O)OC12C (stereo not shown) [Compound 44] | 0.06 µg/mL (≈ 0.074 µM) | – | 0.12 µg/mL (≈ 0.148 µM) | ≦0.015 μg/mL |
| CCC1OC(=O)C(C)C(=O)C(C)C(OC2OC(C)CC(N(C)C)C2O)C(C)(OC(=O)OCCCc2ccc(-c3ncccn3)cc2)CC(C)C(=O)C(C)C2NC(=O)OC12C (stereo not shown) [Compound 139] | 0.06 µg/mL (≈ 0.0715 µM) | – | 0.12 µg/mL (≈ 0.143 µM) | 0.12 µg/mL (≈ 0.143 µM) |
| CCC1OC(=O)C(C)(F)C(=O)C(C)C(OC2OC(C)CC(N(C)C)C2O)C(C)(OC(=O)OCC=Cc2ccc(-c3ncccn3)cc2)CC(C)C(=O)C(C)C2NC(=O)OC12C (stereo not shown) [Compound 288] | 0.12 µg/mL (≈ 0.14 µM) | – | 0.25 µg/mL (≈ 0.292 µM) | 0.06 µg/mL (≈ 0.0702 µM) |
| CCC1OC(=O)C(C)C(=O)C(C)C(OC2OC(C)CC(N(C)C)C2O)C(C)(OC(=O)NOCCc2ccc(-c3cnccn3)cc2)CC(C)C(=O)C(C)C2NC(=O)OC12C (stereo not shown) [Compound 578] | 0.25 µg/mL (≈ 0.298 µM) | – | 0.5 µg/mL (≈ 0.595 µM) | 0.12 µg/mL (≈ 0.143 µM) |
| CCC1OC(=O)C(C)C(=O)C(C)C(OC2OC(C)CC(N(C)C)C2O)C(C)(OC(=O)NOCC#Cc2ccc(-c3ncccn3)cc2)CC(C)C(=O)C(C)C2NC(=O)OC12C (stereo not shown) [Compound 602] | 0.12 µg/mL (≈ 0.141 µM) | – | 0.25 µg/mL (≈ 0.294 µM) | 0.03 µg/mL (≈ 0.0353 µM) |
| CCC1OC(=O)C(C)C(=O)C(C)C(OC2OC(C)CC(N(C)C)C2O)C(C)(OC(=O)NOCC=Cc2ccc(-c3cnccn3)cc2)CC(C)C(=O)C(C)C2NC(=O)OC12C (stereo not shown) [Compound 606] | 0.12 µg/mL (≈ 0.141 µM) | – | 0.25 µg/mL (≈ 0.293 µM) | 0.06 µg/mL (≈ 0.0704 µM) |
| CCC1OC(=O)C(C)C(=O)C(C)C(OC2OC(C)CC(N(C)C)C2O)C(C)(OC(=O)NOCC=Cc2ccc(-c3cccnn3)cc2)CC(C)C(=O)C(C)C2NC(=O)OC12C (stereo not shown) [Compound 607] | 0.25 µg/mL (≈ 0.293 µM) | – | 0.25 µg/mL (≈ 0.293 µM) | 0.03 µg/mL (≈ 0.0352 µM) |
| CC[C@H]1OC(=O)[C@H](C)C(=O)[C@H](C)[C@@H](O[C@@H]2O[C@H](C)C[C@H](N(C)C)[C@H]2O)[C@](C)(OC(=O)NOC/C=C/c2cccnc2)C[C@@H](C)C(=O)[C@H](C)[C@H]2NC(=O)O[C@@]21C [Compound 615] | 0.25 µg/mL (≈ 0.323 µM) | – | 1 µg/mL (≈ 1.29 µM) | 0.06 µg/mL (≈ 0.0774 µM) |
| CC[C@H]1OC(=O)[C@H](C)C(=O)[C@H](C)[C@@H](O[C@@H]2O[C@H](C)C[C@H](N(C)C)[C@H]2O)[C@](C)(OC(=O)NOC/C=C/c2cccc(-c3ncccn3)c2)C[C@@H](C)C(=O)[C@H](C)[C@H]2NC(=O)O[C@@]21C [Compound 616] | 0.25 µg/mL (≈ 0.293 µM) | – | 0.5 µg/mL (≈ 0.587 µM) | 0.06 µg/mL (≈ 0.0704 µM) |
| CC[C@H]1OC(=O)[C@H](C)C(=O)[C@H](C)[C@@H](O[C@@H]2O[C@H](C)C[C@H](N(C)C)[C@H]2O)[C@](C)(OC(=O)NOC/C=C/c2ccc(-c3ccccn3)cc2)C[C@@H](C)C(=O)[C@H](C)[C@H]2NC(=O)O[C@@]21C [Compound 617] | 0.12 µg/mL (≈ 0.141 µM) | – | 0.25 µg/mL (≈ 0.294 µM) | 0.03 µg/mL (≈ 0.0353 µM) |
| CC[C@H]1OC(=O)[C@H](C)C(=O)[C@H](C)[C@@H](O[C@@H]2O[C@H](C)C[C@H](N(C)C)[C@H]2O)[C@](C)(OC(=O)NOC/C=C/c2ccc(-n3cccn3)cc2)C[C@@H](C)C(=O)[C@H](C)[C@H]2NC(=O)O[C@@]21C [Compound 619] | 0.12 µg/mL (≈ 0.143 µM) | – | 0.25 µg/mL (≈ 0.298 µM) | 0.03 µg/mL (≈ 0.0357 µM) |
| CC[C@H]1OC(=O)[C@H](C)C(=O)[C@H](C)[C@@H](O[C@@H]2O[C@H](C)C[C@H](N(C)C)[C@H]2O)[C@](C)(OC(=O)NOC/C=C/c2cnc3ccccc3c2)C[C@@H](C)C(=O)[C@H](C)[C@H]2NC(=O)O[C@@]21C [Compound 620] | 0.12 µg/mL (≈ 0.145 µM) | – | 0.5 µg/mL (≈ 0.606 µM) | 0.03 µg/mL (≈ 0.0364 µM) |
| CC[C@H]1OC(=O)[C@H](C)C(=O)[C@H](C)[C@@H](O[C@@H]2O[C@H](C)C[C@H](N(C)C)[C@H]2O)[C@](C)(OC(=O)N(C)OCCc2ccc(-c3ncccn3)cc2)C[C@@H](C)C(=O)[C@H](C)[C@H]2NC(=O)O[C@@]21C [Compound 621] | 0.25 µg/mL (≈ 0.293 µM) | – | 1 µg/mL (≈ 1.17 µM) | 0.12 µg/mL (≈ 0.141 µM) |
